Results as given in ChEMBL document CHEMBL5724914, “Linking interpersonal differences in gut microbiota composition and drug biotransformation activity” (2024).
One block for each molecule: values may come before it.

Key:
[1] = (§1) The drug is tested on Z-028 corresponding to mouse gut metagenome with ENA study accession number: PRJEB37062 and ENA sample accession number: ERS12561827 for biotransformation under anaerobic condition. The drug concentrations were measured over 9 timepoints collected between 0 and 24 hours of incubation by liquid-chromatography-coupled mass spectrometry (LC–MS); details: 2 µM
[2] = as §1, with “Z-023” for “Z-028”, “to” for “to mouse gut”, “ERS12561822” for “ERS12561827”; details: 2 µM
[3] = as §1, with “Z-021” for “Z-028”, “to” for “to mouse gut”, “ERS12561820” for “ERS12561827”; details: 2 µM
[4] = as §1, with “Z-018” for “Z-028”, “pig” for “mouse”, “ERS12561817” for “ERS12561827”; details: 2 µM
[5] = as §1, with “Z-013” for “Z-028”, “rabbit” for “mouse”, “ERS12561813” for “ERS12561827”; details: 2 µM
[6] = as §1, with “Z-010” for “Z-028”, “to” for “to mouse gut”, “ERS12561810” for “ERS12561827”; details: 2 µM
[7] = as §1, with “Z-006” for “Z-028”, “ERS12561806” for “ERS12561827”; details: 2 µM
[8] = as §1, with “Z-005” for “Z-028”, “to” for “to mouse gut”, “ERS12561805” for “ERS12561827”; details: 2 µM
[9] = as §1, with “WLS-370” for “Z-028”, “human” for “mouse”, “ERS12561793” for “ERS12561827”; details: 2 µM
[10] = as §1, with “WLS-170” for “Z-028”, “human” for “mouse”, “ERS12561762” for “ERS12561827”; details: 2 µM
[11] = as §1, with “WLS-098” for “Z-028”, “human” for “mouse”, “ERS12561754” for “ERS12561827”; details: 2 µM
[12] = as §1, with “WLS-086” for “Z-028”, “human” for “mouse”, “ERS12561752” for “ERS12561827”; details: 2 µM
[13] = as §1, with “WLS-082” for “Z-028”, “human” for “mouse”, “ERS12561751” for “ERS12561827”; details: 2 µM
[14] = as §1, with “WLS-010” for “Z-028”, “human” for “mouse”, “ERS12561743” for “ERS12561827”; details: 2 µM
[15] = human gut metagenome, 24 h, 2 µM
[16] = human gut metagenome, 24 h, 2 µM; remark: listed apart in the source
[17] = human gut metagenome, 24 h, 2 µM; remark: listed apart in the source
[18] = human gut metagenome, 24 h, 2 µM; remark: listed apart in the source
[19] = human gut metagenome, 24 h, 2 µM; remark: listed apart in the source
[20] = human gut metagenome, 24 h, 2 µM; remark: listed apart in the source
Further: call rule not given here.

Compound: O=C(O)CCC(=O)O.O=C(O[C@H]1CN2CCC1CC2)N1CCc2ccccc2[C@@H]1c1ccccc1 [SOLIFENACIN SUCCINATE]
Bacterial Biotransformation [1]: Compound NOT metabolized
Bacterial Biotransformation [2]: Compound metabolized
Bacterial Biotransformation [3]: Compound metabolized
Bacterial Biotransformation [4]: Compound metabolized
Bacterial Biotransformation [5]: Compound NOT metabolized
Bacterial Biotransformation [6]: Compound metabolized
Bacterial Biotransformation [7]: Compound NOT metabolized
Bacterial Biotransformation [8]: Compound metabolized
Bacterial Biotransformation [9]: Compound metabolized
Bacterial Biotransformation [10]: Compound NOT metabolized
Bacterial Biotransformation [11]: Compound metabolized
Bacterial Biotransformation [12]: Compound metabolized
Bacterial Biotransformation [13]: Compound metabolized
Bacterial Biotransformation [14]: Compound metabolized
Bacterial Biotransformation [15]: Compound NOT metabolized
Bacterial Biotransformation [16]: Compound metabolized
Bacterial Biotransformation [17]: Compound NOT metabolized
Bacterial Biotransformation [18]: Compound metabolized
Bacterial Biotransformation [19]: Compound NOT metabolized
Bacterial Biotransformation [20]: Compound metabolized

Compound: O=C(CCCN1CCC2(CC1)C(=O)NCN2c1ccccc1)c1ccc(F)cc1 [SPIPERONE]
Bacterial Biotransformation [1]: Compound NOT metabolized
Bacterial Biotransformation [2]: Compound metabolized
Bacterial Biotransformation [3]: Compound NOT metabolized
Bacterial Biotransformation [4]: Compound NOT metabolized
Bacterial Biotransformation [5]: Compound NOT metabolized
Bacterial Biotransformation [6]: Compound metabolized
Bacterial Biotransformation [7]: Compound NOT metabolized
Bacterial Biotransformation [8]: Compound NOT metabolized
Bacterial Biotransformation [9]: Compound NOT metabolized
Bacterial Biotransformation [10]: Compound metabolized
Bacterial Biotransformation [11]: Compound metabolized
Bacterial Biotransformation [12]: Compound metabolized
Bacterial Biotransformation [13]: Compound NOT metabolized
Bacterial Biotransformation [14]: Compound NOT metabolized
Bacterial Biotransformation [15]: Compound metabolized
Bacterial Biotransformation [16]: Compound metabolized
Bacterial Biotransformation [17]: Compound NOT metabolized
Bacterial Biotransformation [18]: Compound NOT metabolized
Bacterial Biotransformation [19]: Compound NOT metabolized
Bacterial Biotransformation [20]: Compound metabolized

Compound: COc1cc2nc(N3CCN(C(=O)C4CCCO4)CC3)nc(N)c2cc1OC (stereo not given) [TERAZOSIN]
Bacterial Biotransformation [1]: Compound NOT metabolized
Bacterial Biotransformation [2]: Compound NOT metabolized
Bacterial Biotransformation [3]: Compound NOT metabolized
Bacterial Biotransformation [4]: Compound metabolized
Bacterial Biotransformation [5]: Compound NOT metabolized
Bacterial Biotransformation [6]: Compound metabolized
Bacterial Biotransformation [7]: Compound NOT metabolized
Bacterial Biotransformation [8]: Compound metabolized
Bacterial Biotransformation [9]: Compound NOT metabolized
Bacterial Biotransformation [10]: Compound NOT metabolized
Bacterial Biotransformation [11]: Compound metabolized
Bacterial Biotransformation [12]: Compound metabolized
Bacterial Biotransformation [13]: Compound metabolized
Bacterial Biotransformation [14]: Compound NOT metabolized
Bacterial Biotransformation [15]: Compound NOT metabolized
Bacterial Biotransformation [16]: Compound metabolized
Bacterial Biotransformation [17]: Compound metabolized
Bacterial Biotransformation [18]: Compound NOT metabolized
Bacterial Biotransformation [19]: Compound NOT metabolized
Bacterial Biotransformation [20]: Compound metabolized

Compound: CCN(CC)CCNC(=O)c1cc(S(C)(=O)=O)ccc1OC [TIAPRIDE]
Bacterial Biotransformation [1]: Compound NOT metabolized
Bacterial Biotransformation [2]: Compound NOT metabolized
Bacterial Biotransformation [3]: Compound NOT metabolized
Bacterial Biotransformation [4]: Compound NOT metabolized
Bacterial Biotransformation [5]: Compound NOT metabolized
Bacterial Biotransformation [6]: Compound NOT metabolized
Bacterial Biotransformation [7]: Compound NOT metabolized
Bacterial Biotransformation [8]: Compound NOT metabolized
Bacterial Biotransformation [9]: Compound NOT metabolized
Bacterial Biotransformation [10]: Compound NOT metabolized
Bacterial Biotransformation [11]: Compound metabolized
Bacterial Biotransformation [12]: Compound NOT metabolized
Bacterial Biotransformation [13]: Compound NOT metabolized
Bacterial Biotransformation [14]: Compound NOT metabolized
Bacterial Biotransformation [15]: Compound NOT metabolized
Bacterial Biotransformation [16]: Compound metabolized
Bacterial Biotransformation [17]: Compound metabolized
Bacterial Biotransformation [18]: Compound NOT metabolized
Bacterial Biotransformation [19]: Compound NOT metabolized
Bacterial Biotransformation [20]: Compound NOT metabolized

The next lines start with the values.

Bacterial Biotransformation [1]: Compound NOT metabolized
Bacterial Biotransformation [2]: Compound NOT metabolized
Bacterial Biotransformation [3]: Compound NOT metabolized
Bacterial Biotransformation [4]: Compound metabolized
Bacterial Biotransformation [5]: Compound NOT metabolized
Bacterial Biotransformation [6]: Compound NOT metabolized
Bacterial Biotransformation [7]: Compound NOT metabolized
Bacterial Biotransformation [8]: Compound NOT metabolized
Bacterial Biotransformation [9]: Compound NOT metabolized
Bacterial Biotransformation [10]: Compound metabolized
Bacterial Biotransformation [11]: Compound metabolized
Bacterial Biotransformation [12]: Compound metabolized
Bacterial Biotransformation [13]: Compound NOT metabolized
Bacterial Biotransformation [14]: Compound NOT metabolized
Bacterial Biotransformation [15]: Compound NOT metabolized
Bacterial Biotransformation [16]: Compound metabolized
Bacterial Biotransformation [17]: Compound NOT metabolized
Bacterial Biotransformation [18]: Compound NOT metabolized
Bacterial Biotransformation [19]: Compound NOT metabolized
Bacterial Biotransformation [20]: Compound metabolized
Compound: CCCN(CCC)CCc1cccc2c1CC(=O)N2 [ROPINIROLE]

Bacterial Biotransformation [1]: Compound NOT metabolized
Bacterial Biotransformation [2]: Compound metabolized
Bacterial Biotransformation [3]: Compound metabolized
Bacterial Biotransformation [4]: Compound NOT metabolized
Bacterial Biotransformation [5]: Compound NOT metabolized
Bacterial Biotransformation [6]: Compound NOT metabolized
Bacterial Biotransformation [7]: Compound NOT metabolized
Bacterial Biotransformation [8]: Compound NOT metabolized
Bacterial Biotransformation [9]: Compound NOT metabolized
Bacterial Biotransformation [10]: Compound metabolized
Bacterial Biotransformation [11]: Compound metabolized
Bacterial Biotransformation [12]: Compound metabolized
Bacterial Biotransformation [13]: Compound NOT metabolized
Bacterial Biotransformation [14]: Compound NOT metabolized
Bacterial Biotransformation [15]: Compound NOT metabolized
Bacterial Biotransformation [16]: Compound metabolized
Bacterial Biotransformation [17]: Compound NOT metabolized
Bacterial Biotransformation [18]: Compound NOT metabolized
Bacterial Biotransformation [19]: Compound NOT metabolized
Bacterial Biotransformation [20]: Compound NOT metabolized
Compound: CCOc1ccccc1OCCN[C@H](C)Cc1ccc(OC)c(S(N)(=O)=O)c1.Cl [TAMSULOSIN HYDROCHLORIDE]

Bacterial Biotransformation [1]: Compound NOT metabolized
Bacterial Biotransformation [2]: Compound metabolized
Bacterial Biotransformation [3]: Compound NOT metabolized
Bacterial Biotransformation [4]: Compound NOT metabolized
Bacterial Biotransformation [5]: Compound NOT metabolized
Bacterial Biotransformation [6]: Compound metabolized
Bacterial Biotransformation [7]: Compound NOT metabolized
Bacterial Biotransformation [8]: Compound NOT metabolized
Bacterial Biotransformation [9]: Compound NOT metabolized
Bacterial Biotransformation [10]: Compound metabolized
Bacterial Biotransformation [11]: Compound NOT metabolized
Bacterial Biotransformation [12]: Compound NOT metabolized
Bacterial Biotransformation [13]: Compound metabolized
Bacterial Biotransformation [14]: Compound NOT metabolized
Bacterial Biotransformation [15]: Compound NOT metabolized
Bacterial Biotransformation [16]: Compound NOT metabolized
Bacterial Biotransformation [17]: Compound NOT metabolized
Bacterial Biotransformation [18]: Compound NOT metabolized
Bacterial Biotransformation [19]: Compound NOT metabolized
Bacterial Biotransformation [20]: Compound NOT metabolized
Compound: CCCCCNC(=N)N/N=C/c1c[nH]c2ccc(OC)cc12.O=C(O)/C=C\C(=O)O [TEGASEROD MALEATE]

Bacterial Biotransformation [1]: Compound NOT metabolized
Bacterial Biotransformation [2]: Compound NOT metabolized
Bacterial Biotransformation [3]: Compound NOT metabolized
Bacterial Biotransformation [4]: Compound NOT metabolized
Bacterial Biotransformation [5]: Compound NOT metabolized
Bacterial Biotransformation [6]: Compound NOT metabolized
Bacterial Biotransformation [7]: Compound NOT metabolized
Bacterial Biotransformation [8]: Compound NOT metabolized
Bacterial Biotransformation [9]: Compound NOT metabolized
Bacterial Biotransformation [10]: Compound NOT metabolized
Bacterial Biotransformation [11]: Compound metabolized
Bacterial Biotransformation [12]: Compound metabolized
Bacterial Biotransformation [13]: Compound NOT metabolized
Bacterial Biotransformation [14]: Compound NOT metabolized
Bacterial Biotransformation [15]: Compound NOT metabolized
Bacterial Biotransformation [16]: Compound NOT metabolized
Bacterial Biotransformation [17]: Compound NOT metabolized
Bacterial Biotransformation [18]: Compound NOT metabolized
Bacterial Biotransformation [19]: Compound NOT metabolized
Bacterial Biotransformation [20]: Compound NOT metabolized
Compound: c1ccc2[nH]c(-c3cscn3)nc2c1 [THIABENDAZOLE]
